According to patent US10414832B2, “Derivatives of sulfated polysaccharides, method of preparation, modification and use thereof” (Contipro a.s., priority 2015, dated 2019):

Tests used:
Solubility in DMSO = assay type: physicochemical; conditions: lyophilized acid form
Protocol: A 1% solution of chondroitin sulfate (500 mg, 1.1 mmol) in distilled water was prepared. The solution was cooled to 5° C. and 1.2 ml of Amberlite IR 120 Na(H^+) catex was added. The reaction mixture was stirred for 24 h at 5° C. The catex was filtered off, the product was frozen and lyophilized. Its solubility in DSMO was tested and found satisfactory.

[1] = purchased from Sigma Aldrich; cited from earlier work
3T3 fibroblasts = assay: Viability tests of 3T3 fibroblasts (MTT method); assay type: cell-based; conditions: 3T3 cells, 10, 100, 500 and 1000 μg·mL^−1, 0, 24, 48, 72 hours
Protocol: FIG. 3 illustrates the results of the cell viability tests of 3T3 fibroblasts in α,β-unsaturated aldehyde of chondroitin sulfate (Mw=4×10^4 g/mol, DS=20%). The activation vs inhibition curve, expressed in %, with respect to the control in time T=0 h (100%). Evaluation by means of MTT method, six repetitions.
The tested substance, α,β-unsaturated aldehyde of chondroitin sulfate (DS=20%, Mw=40 kDa), was dissolved in a complete 3T3 medium. The solution was filtered via a 0.22 μm filter. The final test concentrations of the tested solution were 10, 100, 500, and 1000 μg·mL^−1. 3T3 cells of the density of 3000 cells per a well were inoculated into 96-well plates. Before the treatment, the cells were cultured for 24 hours in a complete medium. The cell viability was evaluated by spectrophotometry by means of 3-[4,5-dimethylthiazole-2-yl]-2,5-diphenyl tetrazolium bromide (MTT method) in the intervals of 0, 24, 48, 72 hours. The whole experiment was supplemented with a set of non-treated controls and blank samples. The measured optical density data were converted into percentage formulation related to the control in the time T0 hours (the ratio of the optical density of the treated sample with respect to the optical density of the non-treated control T0, multiplied by 100) and the standard error of the mean (SEM) was calculated. The results of the test are graphically presented at FIG. 3.

Substance	solubility in water [1] [µg/mL]	other results
Acid Form of Chondroitin Sulfate [Example 26]	–	solubility in DSMO (Solubility in DMSO): satisfactory
Lambda carrageenan	10000	–
sodium salt of dermatan sulfate	5000	–
α,β-unsaturated aldehyde of chondroitin sulfate	–	cytotoxicity (cell viability of 3T3 fibroblasts) (3T3 fibroblasts): not cytotoxic
